Laboratory results as given in ChEMBL document CHEMBL1201862, “PubChem BioAssay data set” (2004).
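Growth conditions: 96-well plates. Treatment: test compound, 48 hours, 5 concentrations. Analysis: linear interpolation between bracketing concentrations; unreached endpoints set to highest concentration. GI50 = concentration required for 50% inhibition of growth.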 Activity calls are given as the source filed them. Cut-off read from the data, not from the text of the source: active = GI50 up to about 1.1 µM and inactive = higher.

Experiments:
Test in all cases: NCI tumour cell line growth inhibition, 48 h
OVCAR-3 = tested on: OVCAR-3
HCT-15 = tested on: HCT-15
SF-539 = tested on: SF-539
KM12 = tested on: KM12
CCRF-CEM = tested on: CCRF-CEM
UACC-62 = tested on: UACC-62
MDA-MB-231 = tested on: MDA-MB-231
MCF7 = tested on: MCF7
UO-31 = tested on: UO-31
EKVX = tested on: EKVX
SNB-75 = tested on: SNB-75
U-251 = tested on: U-251
NCI-H460 = tested on: NCI-H460
HCC 2998 = tested on: HCC 2998
M14 = tested on: M14
MDA-MB-435 = tested on: MDA-MB-435
SW-620 = tested on: SW-620
K562 = tested on: K562
Malme-3M = tested on: Malme-3M
HT-29 = tested on: HT-29
A549 = tested on: A549
SF-268 = tested on: SF-268
A498 = tested on: A498
SK-OV-3 = tested on: SK-OV-3
SK-MEL-2 = tested on: SK-MEL-2
NCI/ADR-RES = tested on: NCI/ADR-RES
Hs-578T = tested on: Hs-578T
ACHN = tested on: ACHN
LOX IMVI = tested on: LOX IMVI
SNB-19 = tested on: SNB-19
SK-MEL-28 = tested on: SK-MEL-28
DU-145 = tested on: DU-145
786-0 = tested on: 786-0
SK-MEL-5 = tested on: SK-MEL-5
IGROV-1 = tested on: IGROV-1
T47D = tested on: T47D
RPMI-8226 = tested on: RPMI-8226
BT-549 = tested on: BT-549
SN12C = tested on: SN12C
COLO 205 = tested on: COLO 205
HOP-62 = tested on: HOP-62
CAKI-1 = tested on: CAKI-1
NCI-H23 = tested on: NCI-H23
OVCAR-8 = tested on: OVCAR-8
HCT-116 = tested on: HCT-116
RXF 393 = tested on: RXF 393
HL-60 = tested on: HL-60
UACC-257 = tested on: UACC-257
MOLT-4 = tested on: MOLT-4
TK-10 = tested on: TK-10
OVCAR-5 = tested on: OVCAR-5
SF-295 = tested on: SF-295
NCI-H226 = tested on: NCI-H226
PC-3 = tested on: PC-3
NCI-H522 = tested on: NCI-H522

NC(=O)c1nnn(-c2ccccc2)c1O
GI50 (OVCAR-3): > 100 µM (inactive)
GI50 (HCT-15): > 100 µM
GI50 (SF-539): > 100 µM (inactive)
GI50 (KM12): > 100 µM (inactive)
GI50 (CCRF-CEM): > 100 µM (inactive)
GI50 (UACC-62): > 100 µM (inactive)
GI50 (MDA-MB-231): > 100 µM (inactive)
GI50 (MCF7): > 100 µM (inactive)
GI50 (UO-31): > 100 µM (inactive)
GI50 (EKVX): > 100 µM (inactive)
GI50 (SNB-75): > 100 µM (inactive)
GI50 (U-251): > 100 µM (inactive)
GI50 (NCI-H460): > 100 µM (inactive)
GI50 (HCC 2998): > 100 µM (inactive)
GI50 (M14): > 100 µM (inactive)
GI50 (MDA-MB-435): > 100 µM (inactive)
GI50 (SW-620): > 100 µM (inactive)
GI50 (K562): > 100 µM (inactive)
GI50 (Malme-3M): > 100 µM (inactive)
GI50 (HT-29): > 100 µM (inactive)
GI50 (A549): > 100 µM (inactive)
GI50 (SF-268): > 100 µM (inactive)
GI50 (A498): > 100 µM (inactive)
GI50 (SK-OV-3): > 100 µM (inactive)
GI50 (SK-MEL-2): > 100 µM (inactive)
GI50 (NCI/ADR-RES): > 100 µM (inactive)
GI50 (Hs-578T): > 100 µM (inactive)
GI50 (ACHN): > 100 µM (inactive)
GI50 (LOX IMVI): > 100 µM (inactive)
GI50 (SNB-19): > 100 µM (inactive)
GI50 (SK-MEL-28): > 100 µM (inactive)
GI50 (DU-145): > 100 µM (inactive)
GI50 (786-0): > 100 µM (inactive)
GI50 (SK-MEL-5): > 100 µM (inactive)
GI50 (IGROV-1): > 100 µM (inactive)
GI50 (T47D): > 100 µM (inactive)
GI50 (RPMI-8226): > 100 µM (inactive)
GI50 (BT-549): > 100 µM (inactive)
GI50 (SN12C): > 100 µM (inactive)
GI50 (COLO 205): > 100 µM (inactive)
GI50 (HOP-62): > 100 µM (inactive)
GI50 (CAKI-1): > 100 µM (inactive)
GI50 (NCI-H23): > 100 µM (inactive)
GI50 (OVCAR-8): > 100 µM (inactive)
GI50 (HCT-116): > 100 µM (inactive)
GI50 (RXF 393): > 100 µM (inactive)
GI50 (HL-60): 0.1 µM (active)
GI50 (UACC-257): > 100 µM (inactive)
GI50 (MOLT-4): > 100 µM (inactive)
GI50 (TK-10): > 100 µM (inactive)
GI50 (OVCAR-5): > 100 µM (inactive)
GI50 (SF-295): > 100 µM (inactive)
GI50 (NCI-H226): > 100 µM (inactive)
GI50 (PC-3): > 100 µM (inactive)
GI50 (NCI-H522): > 100 µM (inactive)
